Among the data in patent US20060099283A1, “Leaf juice of plectranthus amboinicus for treating cancer and/or tumor” (priority 2004, published 2006) are inhibition values, retold here.

The test system of one test is Huh7. The test can be described thus: Huh7 hepatocellular carcinoma cell count after treatment. It is filed as cell-based. As to conditions: Homo sapiens, Huh-7, 72 h; Huh7, day 3, 50 nM paciltaxel; read-out: inhibiting rate (cell growth).
The next test concerns HepG2. The test can be described thus: HepG2 hepatocellular carcinoma cell count after treatment. It is filed as cell-based. To be noted: Homo sapiens, 72 h; HepG2, day 3, 50 nM paciltaxel; read-out: inhibiting rate (cell growth).

Procedure for HepG2: HepG2 and Hep3B cells were cultured in minimum essential medium supplemented with 10% fetal calf serum, 2 mM L-glutamine, 50 IU/mL penicillin, and 50 μg/mL streptomycin.
Cultures were maintained at 37° C. in a humidified atmosphere containing 5% CO2.
(§1) Treatment: In all in vitro experiments, 3% of the leaf juice prepared according to Example 1 was added to the cells after subcultured directly.
Cell count: Total cell counts were made by adding 20 μL of the cell suspension to 20 μL of 0.4% trypan blue, and counted under a phase contrast microscope.
The hepatocellular carcinoma cell lines used in the example are HepG2 and Huh7, and the manipulations of the cell culture and treatment are as described in Example 2. The cells were grouped into a control group (without treatment) and experiment groups treated with 5% of leaf juice, 50 nM paciltaxel, and combining 5% of leaf juice and 50 nM paciltaxel. Each group was repeated six times.
Source text for Huh7: Cell lines: The following nine human tumor cell lines of different histologic origins were obtained from commercial cell culture collections unless indicated otherwise: HepG2 (haptocellular carcinoma, liver; provided by Dr. C H Huang, National Health Research Institute, Taipei, Taiwan), Hep3B (haptocellular carcinoma, liver; provided by Dr. C H Huang, National Health Research Institute, Taipei, Taiwan), U937 (myeloid leukemia), K562 (chronic myeloid leukemia, bone marrow), Calu-1 (epidermoid carcinoma, lung; provided by Dr. Y C Kuo, National Institute of Traditional Chinese Medicine, Taipei, Taiwan), TL (trophoblast-like cell line, placenta; provided by Dr. C K Ho, Veteran General Hospital, Taipei, Taiwan), Jurket (human lymphoblastoid T cell line), Bowes (human melanoma cell), and Huh7 (hepatocellular carcinoma/ectoderm).
Cultures were maintained at 37° C. in a humidified atmosphere containing 5% CO2. All cell reagents were obtained from Gibco-Invitrogen Co., Ltd (Grand Island, N.Y. U.S.A.) and HyClone (Logan, Utah, U.S.A.).
as §1
Cell count: Total cell counts were made by adding 20 μL of the cell suspension to 20 μL of 0.4% trypan blue, and counted under a phase contrast microscope. […]

With `CC(=O)O[C@H]1C(=O)[C@@]2(C)[C@H]([C@H](OC(=O)c3ccccc3)[C@]3(O)C[C@H](OC(=O)[C@H](O)[C@@H](NC(=O)c4ccccc4)c4ccccc4)C(C)=C1C3(C)C)[C@]1(OC(C)=O)CO[C@@H]1C[C@@H]2O` [paciltaxel], the values for the inhibition at 0.05 µM with Huh7 and in the test with HepG2 were 66.1% and 43.8%, respectively.
